Results taken from paper PMC8388760, “Novel Bifunctional Acylase from Actinoplanes utahensis: A Versatile Enzyme to Synthesize Antimicrobial Compounds and Use in Quorum Quenching Processes” (Antibiotics, 2021).

Test system: T1, AuAHLA
T1 construct: gene ahla; full ORF of 808 residues expressed untagged in Rhodococcus sp; T104, secreted; signal peptide of 34-35 aa removed
Assay: hydrolysis, o-phthalaldehyde fluorometric assay of released primary amine
Assay type: biochemical, Actinoplanes utahensis
Details: 0.2 M potassium phosphate pH 8.0, 45 °C
Description: hydrolysis, o-phthalaldehyde fluorometric assay of released primary amine on AuAHLA

Structure (SMILES)	Km [µM]
CC1(C)S[C@@H]2[C@H](NC(=O)Cc3ccccc3)C(=O)N2[C@H]1C(=O)O [Penicillin G]	1210 ± 300
CCCCCC(=O)N[C@@H]1C(=O)N2[C@@H]1SC(C)(C)[C@@H]2C(=O)O [Penicillin dihidroF]	199 ± 20
CC1(C)S[C@@H]2[C@H](NC(=O)COc3ccccc3)C(=O)N2[C@H]1C(=O)O [Penicillin V]	472 ± 50
CCCCCCCC(=O)N[C@@H]1C(=O)N2[C@@H]1SC(C)(C)[C@@H]2C(=O)O [Penicillin K]	675 ± 190

Same assay, conditions: 0.2 M potassium phosphate pH 8.0, 45 °C, 20% (v/v) DMSO

Structure (SMILES)	Km [µM]
CCCCCC(=O)CC(=O)N[C@H]1CCOC1=O [3-oxo-C8-HSL, N-(3-oxooctanoyl)-L-homoserine lactone]	1040 ± 420
CCCCCCCCCC(=O)N[C@H]1CCOC1=O [C10-HSL, N-decanoyl-L-homoserine lactone]	84 ± 21
CCCCCC(=O)N[C@H]1CCOC1=O [C6-HSL, N-hexanoyl-L-homoserine lactone]	2250 ± 500
CCCCCCCCCCCC(=O)N[C@H]1CCOC1=O [C12-HSL, N-dodecanoyl-L-homoserine lactone]	8 ± 2
CCCCCCCC(=O)CC(=O)N[C@H]1CCOC1=O [3-oxo-C10-HSL, N-(3-oxodecanoyl)-L-homoserine lactone]	238 ± 86
CCCCCCCC(=O)N[C@H]1CCOC1=O [C8-HSL, N-octanoyl-L-homoserine lactone]	860 ± 150
CCCCCCCCCC(=O)CC(=O)N[C@H]1CCOC1=O [3-oxo-C12-HSL, N-(3-oxododecanoyl)-L-homoserine lactone]	92 ± 21
